Measured values published in ChEMBL document CHEMBL1154346 (Bioorg Med Chem Lett, 2009).
pKi: −log10 of the molar value.

What was measured:
[1] = system: Canis familiaris; assay: Cardiotoxicity in conscious dog assessed as prolongation of QT interval; format: toxicity, organism-based, Canis lupus familiaris; conditions: in vivo
[2] = molecular target: Voltage-gated inwardly rectifying potassium channel KCNH2 (Homo sapiens, UniProt Q12809); assay: Displacement of [3H]dofetilide from human ERG expressed in HEK293 cells; format: cell-based
[3] = Toxicity in iv dosed mouse assessed as loss of righting reflex; format: organism-based; conditions: in vivo, read-out: HD50 (the source's name)

Voltage-gated inwardly rectifying potassium channel KCNH2, sequence (Q12809 whole entry): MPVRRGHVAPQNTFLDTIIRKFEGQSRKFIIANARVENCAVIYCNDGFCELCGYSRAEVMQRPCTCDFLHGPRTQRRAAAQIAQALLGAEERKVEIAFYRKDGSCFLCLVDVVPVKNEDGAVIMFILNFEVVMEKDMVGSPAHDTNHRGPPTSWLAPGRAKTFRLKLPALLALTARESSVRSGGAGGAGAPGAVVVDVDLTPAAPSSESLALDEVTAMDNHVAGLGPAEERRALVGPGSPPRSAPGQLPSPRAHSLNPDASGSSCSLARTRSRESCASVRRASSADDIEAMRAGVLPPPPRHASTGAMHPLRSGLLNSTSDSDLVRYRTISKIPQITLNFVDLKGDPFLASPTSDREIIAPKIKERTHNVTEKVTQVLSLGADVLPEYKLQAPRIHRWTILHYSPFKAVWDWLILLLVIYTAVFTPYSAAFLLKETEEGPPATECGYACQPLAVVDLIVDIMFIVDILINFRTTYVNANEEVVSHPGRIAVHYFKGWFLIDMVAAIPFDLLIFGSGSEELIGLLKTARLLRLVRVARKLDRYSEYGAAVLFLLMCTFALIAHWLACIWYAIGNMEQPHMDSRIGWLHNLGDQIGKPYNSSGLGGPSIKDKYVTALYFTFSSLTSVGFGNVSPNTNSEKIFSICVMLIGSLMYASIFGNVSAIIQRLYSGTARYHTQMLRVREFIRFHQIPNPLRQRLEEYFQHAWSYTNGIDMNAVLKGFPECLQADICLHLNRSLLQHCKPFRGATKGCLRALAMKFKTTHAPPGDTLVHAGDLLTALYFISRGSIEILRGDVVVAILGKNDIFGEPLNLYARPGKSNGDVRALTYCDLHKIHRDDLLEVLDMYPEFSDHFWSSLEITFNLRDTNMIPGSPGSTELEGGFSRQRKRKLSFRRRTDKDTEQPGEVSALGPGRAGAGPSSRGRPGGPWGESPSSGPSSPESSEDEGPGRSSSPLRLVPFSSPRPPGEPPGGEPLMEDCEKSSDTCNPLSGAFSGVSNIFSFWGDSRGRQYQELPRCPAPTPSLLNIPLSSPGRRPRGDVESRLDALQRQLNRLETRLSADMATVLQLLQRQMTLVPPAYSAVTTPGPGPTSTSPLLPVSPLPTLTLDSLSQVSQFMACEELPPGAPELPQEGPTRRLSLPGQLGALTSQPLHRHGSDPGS

Molecule `CNC(=O)Cn1c(=O)n(C2CCN(CCC(Oc3cc(OC)ccc3C)C(C)C)CC2)c2ccccc21` (racemic) has an Activity [1] of 10%, a pKi [2] of 7.25 and a TD50 [3] of 4.7 µmol/kg.
